Turning to `Cc1c(-c2ccncc2)[nH]c(-c2ccncc2)c1C(N)=O` [Example 40, 3-Aminocarbonyl-4-methyl-2,5-di(4-pyridyl)-1H-pyrrole], the melting point was 212 to 215 °C. As to `Cc1c(-c2ccncc2)[nH]c2c1C(=O)C(C)(C)CC2` [Example 82 (3,5,5-trimethyl), 4-Oxo-2-(4-pyridyl)-3,5,5-trimethyl-4,5,6,7-tetrahydro-1H-indole], the melting point lay in the range of 237 to 239 °C.

Take `CC(=O)c1c(-c2ccco2)[nH]c(-c2ccncc2)c1C` [Example 69, 3-Acetyl-2-(2-furyl)-4-methyl-5-(4-pyridyl)-1H-pyrrole]: the melting point lay in the range of 218 to 220 °C. In the case of `Cc1c(-c2ccncc2)[nH]c(-c2ccncc2)c1C=O` [Example 26, 3-Formyl-4-methyl-2,5-di(4-pyridyl)-1H-pyrrole] it was 278 to 280 °C; in that of `CC(=O)c1c(-c2ccc(C(F)(F)F)cc2)[nH]c(-c2ccncc2)c1C` [Example 73, 3-Acetyl-4-methyl-5-(4-pyridyl)-2-(4-trifluoromethylphenyl)-1H-pyrrole], 178.5 to 179.5 °C. For `CCCCC(=O)c1c(-c2ccncc2)[nH]c(-c2ccncc2)c1C` [Example 6, 4-Methyl-2,5-di(4-pyridyl)-3-pentanoyl-1H-pyrrole], the melting point lay in the range of 88 to 89 °C. Under `CC(=O)c1c(-c2ccc(C=O)cc2)[nH]c(-c2ccncc2)c1C` [Example 60, 3-Acetyl-2-(4-formylphenyl)-4-methyl-5-(4-pyridyl)-1H-pyrrole] stands 97 to 100 °C. In the case of `CC(=O)c1c(-c2ccc(F)cc2)[nH]c(-c2ccncc2)c1C` [Example 51, 3-Acetyl-2-(4-fluorophenyl)4-methyl-5-(4-pyridyl)-1H-pyrrole] it was 202 to 203 °C; in that of `Cc1c(-c2ccncc2)[nH]c2c1C(=O)CC(C)C2` (stereo not shown) [Example 86, 3,6-Dimethyl-4-oxo-2-(4-pyridyl)-4,5,6,7-tetrahydro-1H-indole], 247 to 248 °C. For `CC(=O)c1c(N2CCN(c3ccccn3)CC2)[nH]c(-c2ccncc2)c1C` [Example 81, 3-Acetyl-4-methyl-5-(4-pyridyl)-2-{4-(2-pyridyl)piperazin-1-yl}-1H-pyrrole], the melting point was 89 to 92 °C. The molecule `CC(=O)c1c(-c2ccc(Cl)cc2)[nH]c(-c2ccncc2)c1C` [Example 68, 3-Acetyl-2-(4-chlorophenyl)-4-methyl-5-(4-pyridyl)-1H-pyrrole] registered a melting point of 187.5 to 189.5 °C. `CC(=O)c1c(-c2ccccc2)[nH]c(-c2ccncc2)c1C` [Example 46, 3-Acetyl-4-methyl-2-phenyl-5-(4-pyridyl)-1H-pyrrole] came in with a melting point of 202 to 203 °C.

Molecule `CC(=O)c1cc(-c2ccncc2)[nH]c1C` [Example 43, 3-Acetyl-2-methyl-5-(4-pyridyl)-1H-pyrrole] came in with a melting point of 236 to 237 °C. In the case of `O=C1CCCc2c(-c3ccncc3)[nH]c(-c3ccccc3)c21` [Example 53, 4-Oxo-3-phenyl-1-(4-pyridyl)-4,5,6,7-tetrahydroisoindole] it was 259 to 260 °C; in that of `CC(=O)c1c(C)[nH]c(-c2ccncc2)c1-c1ccncc1` [Example 42, 3-Acetyl-2-methyl-4,5-di(4-pyridyl)1H-pyrrole], 236 to 239 °C. Under `CCOC(=O)c1c(-c2ccncc2)[nH]c(-c2ccncc2)c1-c1ccc([N+](=O)[O-])cc1` [Example 25, 3-Ethoxycarbonyl-4-(4-nitrophenyl)-2,5-di(4-pyridyl)-1H-pyrrole] stands 274 to 276 °C. `CCCc1c(-c2ccncc2)[nH]c(-c2ccncc2)c1C(C)=O` [Example 29, 3-Acetyl-4-propyl-2,5-di(4-pyridyl)-1H-pyrrole] yielded a melting point of 111 to 113 °C. `CCC(=O)c1c(-c2ccncc2)[nH]c(-c2ccncc2)c1C` [Example 5, 4-Methyl-3-propanoyl-2,5-di(4-pyridyl)-1H-pyrrole] had a melting point of 237 to 238 °C. Molecule `Cc1c(-c2ccncc2)[nH]c(-c2ccncc2)c1C(=O)OC(C)(C)C` [Example 16, 4-Methyl-3-(1,1-dimethylethoxy)carbonyl-2,5-di(4-pyridyl)-1H-pyrrole] gave a melting point of 265 to 267 °C.

With `CC(=O)c1c(-c2ccncc2)[nH]c(-c2ccccc2)c1C` [Example 47, 3-Acetyl-4-methyl-5-phenyl-2-(4-pyridyl)-1H-pyrrole], the melting point was in the range of 208 to 209 °C. With `CC(=O)c1c(-c2ccncc2)[nH]c(-c2ccncc2)c1-c1ccccc1` [Example 7, 3-Acetyl-4-phenyl-2,5-di(4-pyridyl)-1H-pyrrole], the melting point is 208 to 210 °C. Under `CCCCc1c(-c2ccncc2)[nH]c(-c2ccncc2)c1C(C)=O` [Example 31, 3-Acetyl-4-butyl-2,5-di(4-pyridyl)-1H-pyrrole] stands 93 to 95 °C; under `CCCCOC(=O)c1c(-c2ccncc2)[nH]c(-c2ccncc2)c1C` [Example 19, 3-Butoxycarbonyl-4-methyl-2,5-di(4-pyridyl)-1H-pyrrole], 182 to 186 °C; under `CC(=O)c1c(-c2ccncc2)[nH]c(-c2ccnc3ccccc23)c1C` [Example 9, 3-Acetyl-4-methyl-2-(4-pyridyl)-5-(4-quinolyl)-1H-pyrrole], 237 to 239 °C. In the case of `CC(=O)c1c(-c2ccncc2)[nH]c(-c2ccncc2)c1C(F)(F)F` [Example 4, 3-Acetyl-2,5-di(4-pyridyl)-4-trifluoromethyl-1H-pyrrole] it was 250 to 255 °C; in that of `CC(=O)c1c(-c2cccs2)[nH]c(-c2ccncc2)c1C` [Example 52, 3-Acetyl-4-methyl-5-(4-pyridyl)-2-(2-thienyl)-1H-pyrrole], 231 to 232 °C.

The molecule `Cc1c(-c2ccncc2)[nH]c2c1C(=O)CCC2` [Example 49, 3-Methyl-4-oxo-2-(4-pyridyl)-4,5,6,7-tetrahydro-1H-indole] gave a melting point of 248 to 249 °C.

With `CCOC(=O)c1c(-c2ccncc2)[nH]c(-c2ccncc2)c1C` [Example 11, 3-Ethoxycarbonyl-4-methyl-2,5-di(4-pyridyl)-1H-pyrrole], the melting point fell in the range of 206 to 208 °C. Under `CCC(=O)c1c(-c2ccncc2)[nH]c(-c2ccncc2)c1CC` [Example 3, 4-Ethyl-3-propanoyl-2,5-di(4-pyridyl)-1H-pyrrole] stands 209 to 211 °C. Under `C=Cc1[nH]c(-c2ccncc2)c(C)c1C(C)=O` [Example 67, 3-Acetyl-4-methyl-5-(4-pyridyl)-2-vinyl-1H-pyrrole] stands 150 to 155 °C; under `CCOC(=O)c1c(-c2ccncc2)[nH]c(-c2ccncc2)c1-c1ccccc1` [Example 18, 3-Ethoxycarbonyl-4-phenyl-2,5-di(4-pyridyl)-1H-pyrrole], 99 to 100 °C; under `CC(=O)c1c(-c2ccncc2)[nH]c(-c2ccncc2)c1CO` [Example 33, 3-Acetyl-4-hydroxymethyl-2,5-di(4-pyridyl)-1H-pyrrole], 205 to 207 °C. In the case of `COCCOC(=O)c1c(-c2ccncc2)[nH]c(-c2ccncc2)c1C` [Example 20, 3-(2-Methoxyethoxy)carbonyl-4-methyl-2,5-di(4-pyridyl)-1H-pyrrole] it was 174 to 177 °C; in that of `COCc1c(-c2ccncc2)[nH]c(-c2ccncc2)c1C(=O)OC` [Example 24, 3-Methoxycarbonyl-4-methoxymethyl-2,5-di(4-pyridyl)-1H-pyrrole], 97 to 99 °C; in that of `CCc1c(-c2ccncc2)[nH]c(-c2ccncc2)c1C(C)=O` [Example 28, 3-Acetyl-4-ethyl-2,5-di(4-pyridyl)-1H-pyrrole], 241 to 243 °C. As for `CC(=O)c1c(-c2cccc([N+](=O)[O-])c2)[nH]c(-c2ccncc2)c1C` [Example 64, 3-Acetyl-4-methyl-2-(3-nitrophenyl)-5-(4-pyridyl)-1H-pyrrole], the melting point was in the range of 214 to 217 °C. In the case of `CC(=O)c1c(-c2ccnc3ccccc23)[nH]c(-c2ccnc3ccccc23)c1C` [Example 8, 3-Acetyl-4-methyl-2,5-di(4-quinolyl)-1H-pyrrole] it was over 260 °C; in that of `CC(=O)c1c(N2CCN(c3ccccc3)CC2)[nH]c(-c2ccncc2)c1C` [Example 78, 3-Acetyl-4-methyl-2-(4-phenylpiperazin-1-yl)-5-(4-pyridyl)-1H-pyrrole], 218 to 220 °C. In the case of `O=C1CCCc2c(-c3ccccc3)[nH]c(-c3ccncc3)c21` [Example 54, 7-Oxo-3-phenyl-1-(4-pyridyl)-4,5,6,7-tetrahydroisoindole] it was 254 to 255 °C; in that of `CC(=O)c1c[nH]c(-c2ccncc2)c1C` [Example 48, 3-Acetyl-4-methyl-5-(4-pyridyl)-1H-pyrrole], 210 to 211 °C. Under `Cc1c(-c2ccncc2)[nH]c2c1C(=O)CCC2(C)C` [Example 82 (3,7,7-trimethyl), 4-Oxo-2-(4-pyridyl)-3,7,7-trimethyl-4,5,6,7-tetrahydro-1H-indole] stands 278 to 280 °C; under `CC(=O)c1c(CO)[nH]c(-c2ccncc2)c1C` [Example 89, 3-Acetyl-2-hydroxymethyl-4-methyl-5-(4-pyridyl)-1H-pyrrole], 163 to 165 °C.

The molecule `Cc1c(-c2ccncc2)[nH]c(-c2ccncc2)c1S(C)(=O)=O` [Example 27, 3-Metha nesulfonyl-4-methyl-2,5-di(4-pyridyl)-1H-pyrrole] gave a melting point of 232 to 234 °C. In the case of `Cc1c(-c2ccncc2)[nH]c2c1C(=O)CC(c1ccccc1)C2` (stereo not shown) [Example 56, 3-Methyl-4-oxo-6-phenyl-2-(4-pyridyl)-4,5,6,7-tetrahydro-1H-indole] it was 256 to 257 °C; in that of `CC(=O)c1c(C=O)[nH]c(-c2ccncc2)c1C` [Example 88, 3Acetyl-2-formyl-4-methyl-5-(4-pyridyl)-1H-pyrrole], 208 to 209 °C; in that of `CC(=O)c1c(-c2ccsc2)[nH]c(-c2ccncc2)c1C` [Example 70, 3-Acetyl-4-methyl-5-(4-pyridyl)-2-(3-thienyl)-1H-pyrrole], 240 to 244 °C.

For orientation: melting point means the temperature of the solid-liquid transition.

The record behind these values is patent publication US6417202B1, “Pyridylpyrrole compounds useful as interleukin-and TNF antagonists” (Pfizer Inc., priority 1996, dated 2002).
